{"source": "patent US11345700B2", "about": "“Methods of preparing inhibitors of influenza viruses replication” (priority 2013, dated 2022)", "key": {"[1]": {"conditions": "2 weeks"}, "[2]": {"tested_on": "Influenza A/California/04/2009 (pndH1N1) virus", "type": "in vivo, BALB/c mice", "conditions": "mouse, in vivo"}, "[3]": {"tested_on": "Influenza A/Victoria/3/75 (H3N2) virus", "type": "in vivo, BALB/c mice", "conditions": "mouse, in vivo"}, "[4]": {"tested_on": "Influenza A/Vietnam/1203/2004 (H5N1) virus", "type": "in vivo, BALB/c mice", "conditions": "10 mg/kg p.o. twice a day for 10 days; Treatment (+48 h)"}, "[5]": {"tested_on": "influenza A virus", "assay": "Mouse influenza A model: prophylactic dose response and delayed treatment, survival and body weight loss", "type": "in vivo, mice", "conditions": "10 mg/kg BID", "excerpt": "The prophylactic dose response of Compound (1) was investigated in the mouse influenza A model. […] All of the mice that received vehicle alone succumbed to the infection by study day 9 and had lost, on average, ˜32% of their body weight (BW).\nAll vehicle controls succumbed to disease by study days 8 or 9."}, "[6]": {"tested_on": "influenza A", "assay": "Mouse model of influenza A: lung viral titers", "type": "in vivo, mice", "conditions": "Study 1, 10 mg/kg BID from 24 h post infection for 5 days"}, "[7]": {"tested_on": "A/Puerto Rico/8/34"}, "[8]": {"tested_on": "influenza A/PR/8/34", "assay": "In vivo combination of Compound (1) with zanamivir, influenza A challenge in mice", "conditions": "no Compound (1)", "excerpt": "Efficiency quotient, a composite measure of survival, bodyweight loss and lung function (% survival/(% body weight loss at Day 8)*(Penh at Day 6)) is summarized in Table 19B."}, "[9]": {"tested_on": "A/Puerto Rico/8/34", "type": "cell-based, influenza A virus"}, "[10]": {"conditions": "in Nitromethane, ambient temperature"}, "[11]": {"conditions": "treatment start +24 h relative to infection"}, "[12]": {"conditions": "treatment start +48 h relative to infection"}, "[13]": {"conditions": "treatment start +72 h relative to infection"}, "[14]": {"conditions": "treatment start −2 h relative to infection"}, "[15]": {"conditions": "Zanamivir 0.3 mg/kg IN x 1, 24 h prior to infection"}, "[16]": {"conditions": "Zanamivir 1 mg/kg IN x 1, 24 h prior to infection"}, "[17]": {"conditions": "Zanamivir 3 mg/kg IN x 1, 24 h prior to infection"}}, "note": "Read-outs that look alike come from different tables or passages of the source. Marks after values point to notes of the source that are not given here."}
{"smiles": "Cl.Cl.O.O=C(O)[C@H]1C2CCC(CC2)[C@@H]1Nc1nc(-c2c[nH]c3ncc(F)cc23)ncc1F.O=C(O)[C@H]1C2CCC(CC2)[C@@H]1Nc1nc(-c2c[nH]c3ncc(F)cc23)ncc1F", "note": "[Form A HCl salt of Compound (1)]", "values": [{"measurement": "Sol.", "setting": "[1]", "value": 0.6, "unit": "mg/mL"}, {"measurement": "Sol.", "setting": "[1]; [10]", "value": "<0.1", "unit": "mg/mL"}]}
{"smiles": "O=C(O)[C@H]1C2CCC(CC2)[C@@H]1Nc1nc(-c2c[nH]c3ncc(F)cc23)ncc1F", "note": "[Form A free base Compound (1)]", "values": [{"measurement": "Sol.", "setting": "[1]", "value": "<0.1", "unit": "mg/mL"}, {"measurement": "Sol.", "setting": "[1]; [10]", "value": 0.3, "unit": "mg/mL"}]}
{"smiles": "CCOC(=O)C1=C[C@@H](OC(CC)CC)[C@H](NC(C)=O)[C@@H](N)C1", "note": "[Oseltamivir, reference compound]", "values": [{"measurement": "Mean Lung Parameters (Day 6): Score (hemorrhage score 0-4)", "setting": "[2]", "value": 1.0}, {"measurement": "Mean Lung Parameters (Day 6): Virus Titer", "setting": "[2]", "value": 7.9, "unit": "Log10 CCID50/g"}, {"measurement": "Mean Lung Parameters (Day 6): Weight", "setting": "[2]", "value": 178, "unit": "mg"}, {"measurement": "Survivors/Total", "setting": "[2]", "value": "10/10***"}, {"measurement": "MDD ± SD (mean day of death of mice that died on or before day 21)", "setting": "[3]", "value": 7.0}, {"measurement": "Mean Lung Parameters (Day 6): Score (hemorrhage score 0-4)", "setting": "[3]", "value": 1.7}, {"measurement": "Mean Lung Parameters (Day 6): Virus Titer", "setting": "[3]", "value": 7.0, "unit": "Log10 CCID50/g"}, {"measurement": "Mean Lung Parameters (Day 6): Weight", "setting": "[3]", "value": 218, "unit": "mg"}, {"measurement": "Survivors/Total", "setting": "[3]", "value": "9/10***"}, {"measurement": "MDD ± SD (mean day of death of mice that died on or before day 21)", "setting": "[4]", "value": "9.5 ± 1.2"}, {"measurement": "Mean Lung Parameters (Day 6): Virus Titer", "setting": "[4]", "value": "5.22 ± 0.38", "unit": "Log10 CCID50/g"}, {"measurement": "Survivors/Total", "setting": "[4]", "value": "0/10"}, {"measurement": "survival", "setting": "[5]; same experiment (prophylactic)", "value": "All of the oseltamivir-administered mice survived"}, {"measurement": "protection from death", "setting": "[5]; only when dosing was initiated 24 h or less post infection", "value": "complete protection"}, {"measurement": "Percent Body Weight Loss on Study Day 8", "setting": "[5]; [11]", "value": "−28.9", "unit": "%"}, {"measurement": "Percent Survival", "setting": "[5]; [11]", "value": 100, "unit": "%"}, {"measurement": "Percent Body Weight Loss on Study Day 8", "setting": "[5]; [12]", "value": "−31.1", "unit": "%"}, {"measurement": "Percent Survival", "setting": "[5]; [12]", "value": 80, "unit": "%"}, {"measurement": "Percent Body Weight Loss on Study Day 8", "setting": "[5]; [13]", "value": "−31.3", "unit": "%"}, {"measurement": "Percent Survival", "setting": "[5]; [13]", "value": 0, "unit": "%"}, {"measurement": "Percent Body Weight Loss on Study Day 8", "setting": "[5]; [14]", "value": "−19.1", "unit": "%"}, {"measurement": "Percent Survival", "setting": "[5]; [14]", "value": 100, "unit": "%"}, {"measurement": "Log10 Reduction vs. Vehicle", "setting": "[6]; study day 6", "value": "−0.15"}, {"measurement": "Lung Viral Titer", "setting": "[6]; titers on study day 6", "value": 6.05, "unit": "Log10 TCID50"}, {"measurement": "C.I. (combination index) values at the 50% effect level", "setting": "[7]", "value": 0.58}]}
{"smiles": "CC(=O)N[C@H]1[C@H]([C@H](O)[C@H](O)CO)OC(C(=O)O)=C[C@@H]1N=C(N)N", "note": "[Zanamivir, reference compound]", "values": [{"measurement": "Efficiency Quotient (% survival/(% body weight loss at Day 8)*(Penh at Day 6))", "setting": "[8]; [15]", "value": 0.44}, {"measurement": "Survival Rate", "setting": "[8]; [15]", "value": 37.5}, {"measurement": "Efficiency Quotient (% survival/(% body weight loss at Day 8)*(Penh at Day 6))", "setting": "[8]; [16]", "value": 0.73}, {"measurement": "Survival Rate", "setting": "[8]; [16]", "value": 50}, {"measurement": "Efficiency Quotient (% survival/(% body weight loss at Day 8)*(Penh at Day 6))", "setting": "[8]; [17]", "value": 0.73}, {"measurement": "Survival Rate", "setting": "[8]; [17]", "value": 62.5}, {"measurement": "Synergy Volume, 95% Confidence", "setting": "[9]", "value": 268}, {"measurement": "C.I. (combination index) values at the 50% effect level", "setting": "[7]", "value": 0.64}]}
{"smiles": "NC(=O)c1nc(F)c[nH]c1=O", "note": "[favipiravir]", "values": [{"measurement": "Synergy Volume, 95% Confidence", "setting": "[9]", "value": 317}, {"measurement": "C.I. (combination index) values at the 50% effect level", "setting": "[7]", "value": 0.89}]}
{"smiles": "CCC(CC)O[C@@H]1C=C(C(=O)O)C[C@H](N)[C@H]1NC(C)=O", "note": "[oseltamivir carboxylate]", "values": [{"measurement": "Synergy Volume, 95% Confidence", "setting": "[9]", "value": 312}]}
